“Also recorded” adds a separate entry of the source.
Experiments:
GFP-PARP2 = target: T1, GFP-PARP2 (Homo sapiens, UniProt Q9UGN5); test: Live-cell protein trapping assay: GFP-PARP2 at laser micro-irradiation sites; type: cell-based; settings: U2OS cells
T1 construct: expressed in transfected cells; host or cells: U2OS
Text: The disclosed method is used to analyze protein trapping induced by compounds. Live-cell imaging allows monitoring of the accumulation of at least one protein, e.g. which is detectably labelled, e.g. fluorophore-tagged, at the induced DNA lesions over time. Time0 (t0) hereby describes the timepoint before induction of DNA damage by irradiation. Thus, the relative enrichment of the at least one protein at DNA lesions within the imaged time frame (from t0 to tEND) can be quantified. This allows to the analysis of the recruitment and retention (protein trapping) kinetics of the at least one protein, e.g. which is detectably labelled, e.g. fluorophore-tagged, at DNA lesions. Suitably, as a first step the accumulation and/or residence time of a protein, e.g. which is detectably labelled, e.g. fluorophore-tagged, is measured in the absence of a test compound (control). The optimal imaging time is hereby determined by the time in which the majority of the protein has released from the damage site, indicated by the decrease of signal, e.g. fluorescent signal, at the DNA lesion (see FIG. 2A). Subsequently, the accumulation and/or residence time of the protein, e.g. which is detectably labelled, e.g. fluorophore-tagged, may be determined in the presence of at least one test compound. […] Using this method, we examined the trapping of GFP-tagged ALC1 in the presence of ALCi-1 compared to a DMSO control.
Eukaryotic cells were seeded onto 4/8-well Nunc Lab-Tek chambers (Thermo Fisher Scientific) in the corresponding cell culture medium, cultured over night at 37° C. and transfected with fluorophore-tagged protein plasmids using XtremeGENE HP DNA transfection reagent (Sigma). […]
The drug- and control-master-mixes were prepared in Leibovitz's L-15 media (+10% FBS). […] Therefore, the optimal imaging time for the protein of interest was determined by investigation of the trapping and release under control conditions (no treatment). […] Subsequently, the fluorophore-tagged protein was measured in the presence of at least one compound. […]

PARP1-GFP = PARP1-GFP (Homo sapiens, UniProt P09874); settings: wild-type U2OS cells, 10 μM for 1 h, 355 nm laser, 30 minutes, compared to DMSO
Text: The disclosed method is used to analyze protein trapping induced by compounds. Live-cell imaging allows monitoring of the accumulation of at least one protein, e.g. which is detectably labelled, e.g. fluorophore-tagged, at the induced DNA lesions over time. Time0 (t0) hereby describes the timepoint before induction of DNA damage by irradiation. Thus, the relative enrichment of the at least one protein at DNA lesions within the imaged time frame (from t0 to tEND) can be quantified. This allows to the analysis of the recruitment and retention (protein trapping) kinetics of the at least one protein, e.g. which is detectably labelled, e.g. fluorophore-tagged, at DNA lesions. Suitably, as a first step the accumulation and/or residence time of a protein, e.g. which is detectably labelled, e.g. fluorophore-tagged, is measured in the absence of a test compound (control). The optimal imaging time is hereby determined by the time in which the majority of the protein has released from the damage site, indicated by the decrease of signal, e.g. fluorescent signal, at the DNA lesion (see FIG. 2A). Subsequently, the accumulation and/or residence time of the protein, e.g. which is detectably labelled, e.g. fluorophore-tagged, may be determined in the presence of at least one test compound. […]

T1 sequence (Q9UGN5 whole entry): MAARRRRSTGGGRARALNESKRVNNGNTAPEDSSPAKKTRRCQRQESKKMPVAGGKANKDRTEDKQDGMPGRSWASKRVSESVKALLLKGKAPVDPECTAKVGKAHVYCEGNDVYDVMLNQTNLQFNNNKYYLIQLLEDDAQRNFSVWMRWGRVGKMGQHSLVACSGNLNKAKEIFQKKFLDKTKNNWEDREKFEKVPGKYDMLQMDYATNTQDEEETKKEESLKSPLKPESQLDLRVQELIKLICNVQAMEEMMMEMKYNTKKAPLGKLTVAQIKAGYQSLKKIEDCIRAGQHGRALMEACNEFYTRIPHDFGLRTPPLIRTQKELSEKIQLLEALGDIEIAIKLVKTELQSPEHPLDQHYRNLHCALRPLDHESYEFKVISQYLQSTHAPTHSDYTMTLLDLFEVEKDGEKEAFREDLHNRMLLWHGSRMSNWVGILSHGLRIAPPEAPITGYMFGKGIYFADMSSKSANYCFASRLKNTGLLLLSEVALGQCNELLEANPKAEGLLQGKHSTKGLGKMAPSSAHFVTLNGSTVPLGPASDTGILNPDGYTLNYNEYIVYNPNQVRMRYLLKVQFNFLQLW
PARP1-GFP, sequence (P09874 whole entry): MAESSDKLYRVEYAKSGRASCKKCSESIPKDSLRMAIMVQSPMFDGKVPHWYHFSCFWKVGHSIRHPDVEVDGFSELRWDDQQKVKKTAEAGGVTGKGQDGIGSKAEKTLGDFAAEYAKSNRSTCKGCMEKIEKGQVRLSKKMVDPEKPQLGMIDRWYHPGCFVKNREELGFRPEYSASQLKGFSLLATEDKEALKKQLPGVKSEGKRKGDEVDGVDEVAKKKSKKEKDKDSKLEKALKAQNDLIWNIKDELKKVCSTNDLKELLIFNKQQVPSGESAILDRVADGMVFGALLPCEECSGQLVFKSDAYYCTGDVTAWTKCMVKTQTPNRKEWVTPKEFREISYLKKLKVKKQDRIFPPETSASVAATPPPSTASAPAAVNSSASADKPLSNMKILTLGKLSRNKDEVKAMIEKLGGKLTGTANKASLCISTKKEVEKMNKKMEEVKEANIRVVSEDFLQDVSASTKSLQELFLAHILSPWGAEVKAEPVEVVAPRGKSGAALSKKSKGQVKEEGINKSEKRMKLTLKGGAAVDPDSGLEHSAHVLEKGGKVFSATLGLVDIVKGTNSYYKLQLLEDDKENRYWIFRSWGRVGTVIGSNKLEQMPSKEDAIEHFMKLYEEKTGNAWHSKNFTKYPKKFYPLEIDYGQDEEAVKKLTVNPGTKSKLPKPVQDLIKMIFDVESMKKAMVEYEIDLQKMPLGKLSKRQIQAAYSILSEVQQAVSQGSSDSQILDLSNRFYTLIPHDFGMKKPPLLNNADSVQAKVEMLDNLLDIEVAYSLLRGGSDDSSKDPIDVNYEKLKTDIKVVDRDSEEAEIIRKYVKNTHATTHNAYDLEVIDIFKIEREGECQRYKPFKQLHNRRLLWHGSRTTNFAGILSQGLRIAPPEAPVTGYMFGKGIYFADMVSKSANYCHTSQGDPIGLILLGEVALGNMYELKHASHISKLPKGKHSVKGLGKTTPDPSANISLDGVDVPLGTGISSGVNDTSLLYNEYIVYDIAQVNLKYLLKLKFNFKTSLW

PARP2 trapping at DNA lesions (GFP-PARP2; veliparib, compared to DMSO-only control) | Structure (SMILES) | retention of PARP2 at induced damage sites (PARP trapping) (GFP-PARP2; talazoparib 100 nM, 10% 355 nm laser, 15 minutes, vs absence of PARPi) | recruitment of PARP2 to the damage site (GFP-PARP2; veliparib 10 μM, 10% 355 nm laser, 15 minutes, vs absence of PARPi) | retention of PARP1 at DNA damage sites (PARP1-trapping) (PARP1-GFP)
 | Cn1ncnc1[C@H]1c2n[nH]c(=O)c3cc(F)cc(c23)N[C@@H]1c1ccc(F)cc1 [talazoparib] | enhanced retention of PARP2 |  | 
only weak trapping | C[C@]1(c2nc3c(C(N)=O)cccc3[nH]2)CCCN1 [veliparib] |  | less recruitment of PARP2; also recorded: overall less PARP2 recruitment | enhanced retention of PARP1
